In PMC12136991 (ACS chemical neuroscience, 2025):

What was measured:
[1] = target: human μ-opioid receptor (OPRM1) (Homo sapiens, UniProt P35372); test: cell-based; details: for Emax: OPRM1, read-out: MOR Agonist %Emax ± SEM
Kinetic solubility assay = format: physicochemical; details: kinetic from dmso stock
[2] = Multi-point microsome stability assay, human; format: in vitro ADME; details: both, human microsomal fractions, pH 7.4
[3] = Multi-point microsome stability assay, mouse; format: in vitro ADME; details: male, CD-1, mouse, mouse microsomal fractions, pH 7.4
[4] = Multi-point microsome stability assay, rat; format: in vitro ADME; details: male, Sprague Dawley, rat microsomal fractions, pH 7.4
[5] = Multi-point cytosol stability assay, human; format: in vitro ADME; details: human cytosol fractions, pH 7.4
[6] = Multi-point cytosol stability assay, mouse; format: in vitro ADME; details: mouse cytosol fractions, pH 7.4
[7] = Multi-point cytosol stability assay, rat; format: in vitro ADME; details: rat cytosol fractions, pH 7.4
[8] = target: T1, human δ-opioid receptor (OPRD1) (Homo sapiens, UniProt P41143); test: Forskolin-induced cAMP accumulation assay, DOR agonist mode; details: for Emax: read-out: DOR Agonist %Emax ± SEM
[9] = target: T2, human κ-opioid receptor (OPRK1) (Homo sapiens, UniProt P41145); test: Forskolin-induced cAMP accumulation assay, KOR agonist mode
[10] = target: T1, human δ-opioid receptor (OPRD1); test: Forskolin-induced cAMP accumulation assay, DOR antagonist mode; details: for DOR Antagonist %Imax ± SEM: versus EC50 of SNC80, normalized to naltrexone
[11] = target: T2, human κ-opioid receptor (OPRK1); test: Forskolin-induced cAMP accumulation assay, KOR antagonist mode

T2 sequence (P41145 whole entry): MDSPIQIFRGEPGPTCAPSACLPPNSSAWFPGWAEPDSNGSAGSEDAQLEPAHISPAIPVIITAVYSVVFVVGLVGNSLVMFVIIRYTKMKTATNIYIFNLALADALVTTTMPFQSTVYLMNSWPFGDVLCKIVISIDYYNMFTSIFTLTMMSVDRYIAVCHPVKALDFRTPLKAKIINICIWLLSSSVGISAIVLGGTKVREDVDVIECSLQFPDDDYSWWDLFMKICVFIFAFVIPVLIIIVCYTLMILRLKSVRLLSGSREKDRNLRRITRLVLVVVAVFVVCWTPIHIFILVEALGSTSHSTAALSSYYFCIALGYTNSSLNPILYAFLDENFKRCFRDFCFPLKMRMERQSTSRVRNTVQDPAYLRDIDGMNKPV
human μ-opioid receptor (OPRM1), sequence (P35372 whole entry): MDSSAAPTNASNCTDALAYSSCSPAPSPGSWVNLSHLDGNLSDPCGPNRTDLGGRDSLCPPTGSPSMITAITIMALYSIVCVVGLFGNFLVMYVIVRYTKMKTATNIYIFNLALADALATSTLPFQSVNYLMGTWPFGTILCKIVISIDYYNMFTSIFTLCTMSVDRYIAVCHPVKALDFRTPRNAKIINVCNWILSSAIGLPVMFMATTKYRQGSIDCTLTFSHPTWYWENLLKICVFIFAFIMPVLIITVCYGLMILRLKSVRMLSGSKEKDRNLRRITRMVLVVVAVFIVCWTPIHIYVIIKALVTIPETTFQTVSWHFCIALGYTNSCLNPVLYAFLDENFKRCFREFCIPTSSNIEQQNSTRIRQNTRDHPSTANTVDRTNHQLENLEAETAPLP
T1 sequence (P41143 whole entry): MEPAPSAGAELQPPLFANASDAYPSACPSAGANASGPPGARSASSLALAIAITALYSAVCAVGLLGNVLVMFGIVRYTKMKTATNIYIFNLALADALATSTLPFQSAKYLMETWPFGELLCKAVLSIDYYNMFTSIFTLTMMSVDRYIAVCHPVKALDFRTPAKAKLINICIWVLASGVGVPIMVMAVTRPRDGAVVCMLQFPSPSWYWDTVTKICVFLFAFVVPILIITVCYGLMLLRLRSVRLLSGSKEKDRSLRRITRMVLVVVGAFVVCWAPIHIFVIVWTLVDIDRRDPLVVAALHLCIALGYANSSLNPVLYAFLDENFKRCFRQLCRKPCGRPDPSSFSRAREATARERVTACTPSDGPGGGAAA

Row | Compound | EC50 [1] [nM] | Emax [1] [%] | solubility kinetic (Kinetic solubility assay) [µg/mL] | half-life at 1 μM [2] [min] | half-life at 1 μM [3] [min] | half-life at 1 μM [4] [min] | half-life at 1 μM [5] [min] | half-life at 1 μM [6] [min] | half-life at 1 μM [7] [min] | EC50 [8] [nM] | Emax [8] [%] | EC50 [9] [nM] | Emax ([9]; read-out: KOR Agonist %Emax ± SEM) [%] | IC50 [10] [nM] | DOR Antagonist %Imax ± SEM [10] [%] | IC50 [11] [nM]
1 | C=C[C@H]1C2CCCC1(c1cccc(O)c1)CCN2CCc1ccccc1[N+](=O)[O-] (stereo in doubt) [compound 24, 3-((1S,SR,9R)-2-(2-Nitrophenethyl)-9-vinyl-2-azabicyclo[3.3.1]nonan-5-yl)phenol] | 2.55 | 92.6 | > 39 | 5.02 | 1.22 | 0.41 | 112 | 102 | > 120 | 954 ± 502 | 35.9 | > 10000 | 0 | 114 ± 11.7 | 63.5 ± 12.0 | 
2 | C=C[C@H]1C2CCCC1(c1cccc(O)c1)CCN2CCc1cccc(O)c1 (stereo in doubt) [compound 25, 3-((1S,5R,9R)-2-(3-Hydroxyphenethyl)-9-vinyl-2-azabicyclo[3.3.1]nonan-5-yl)phenol] | 0.93 | 89.7 |  | 27 | 4.02 | 9.65 | > 120 | > 120 | > 120 | > 10000 | 0 | > 10000 |  | 107 ± 12.4 | 138.7 ± 19.3 | 
3 | C=C[C@@H]1[C@H]2CCC[C@]1(c1cccc(O)c1)CCN2C [compound 10, 3-((1R,5S,9S)-2-Methyl-9-vinyl-2-azabicyclo[3.3.1]nonan-5-yl)phenol] | > 10000 |  | > 25 | > 120 | 72.1 | 50.8 | > 120 | > 120 | 116 | > 10000 |  | > 10000 |  | > 10000 |  | > 10000
4 | C=C[C@H]1[C@H]2CCC[C@]1(c1cccc(O)c1)CCN2CCc1cccs1 [compound 16, 3-((1R,5S,9R)-2-(2-(Thiophen-2-yl)ethyl)-9-vinyl-2-azabicyclo[3.3.1]nonan-5-yl)phenol] | 0.8 | 101 | > 35 | 8.21 | 1.66 | 1.04 | > 120 | > 120 | > 120 | 13.2 ± 6.8 | 20 |  |  | 59.8 ± 13 | 87.1 ± 13.9 | 
5 | C=C[C@H]1[C@H]2CCC[C@]1(c1cccc(O)c1)CCN2CCc1ccc(F)cc1 [compound 19, 3-((1R,5S,9R)-2-(4-Fluorophenethyl)-9-vinyl-2-azabicyclo[3.3.1]nonan-5-yl)phenol] | 3.33 | 74.3 | > 36 | 11.8 | 5.26 | 7.6 | > 120 | 108 | 79.4 | > 10000 |  | > 10000 |  | 120 ± 18.5 | 153.1 ± 15.3 | 
6 | C=C[C@H]1[C@H]2CCC[C@]1(c1cccc(O)c1)CCN2CCc1ccc(O)cc1 [compound 20, 3-((1R,5S,9R)-2-(4-Hydroxyphenethyl)-9-vinyl-2-azabicyclo[3.3.1]nonan-5-yl)phenol] | 4.16 | 54.8 | > 34 | 88.1 | 12.5 | 27.8 | > 120 | > 120 | > 120 | > 10000 |  | > 10000 |  | 303 ± 29.2 | 163.6 ± 19.5 | 
